What was measured:
[1] = Liquid, Vibrating tube method
[2] = xn = mol fraction of the nth substance listed; settings: Liquid, Vibrating tube method, x1 = 1

CCCCO [butan-1-ol]
[1]
Settings | mass density [kg/m3]
283.63 K, 80 kPa | 817.19
283.63 K, 5000 kPa | 820.7
283.64 K, 1000 kPa | 817.88
283.64 K, 40000 kPa | 842.03
283.64 K, 60000 kPa | 852.39
283.64 K, 100000 kPa | 870.33
283.65 K, 30000 kPa | 836.43
283.65 K, 80000 kPa | 861.72
283.66 K, 10000 kPa | 824.01
283.66 K, 20000 kPa | 830.39
303.45 K, 100 kPa | 801.81
303.45 K, 1000 kPa | 802.54
303.46 K, 5000 kPa | 805.65
303.46 K, 10000 kPa | 809.35
303.47 K, 20000 kPa | 816.29
303.47 K, 30000 kPa | 822.84
303.47 K, 40000 kPa | 828.87
303.47 K, 60000 kPa | 839.95
303.48 K, 80010 kPa | 849.82
303.48 K, 100000 kPa | 858.94
323.25 K, 1000 kPa | 787.19
323.26 K, 100 kPa | 786.36
323.26 K, 5000 kPa | 790.63
323.27 K, 10000 kPa | 794.68
323.27 K, 20000 kPa | 802.33
323.27 K, 30000 kPa | 809.41
323.28 K, 40000 kPa | 816
323.28 K, 60000 kPa | 827.77
323.28 K, 80000 kPa | 838.31
323.28 K, 100000 kPa | 847.65
343.03 K, 100 kPa | 769.54
343.03 K, 1000 kPa | 770.45
343.04 K, 5000 kPa | 774.32
343.04 K, 10000 kPa | 778.88
343.05 K, 20000 kPa | 787.37
343.05 K, 30000 kPa | 795.06
343.05 K, 40000 kPa | 802.13
343.05 K, 60000 kPa | 814.83
343.05 K, 80000 kPa | 826.08
343.05 K, 100000 kPa | 836.2
362.68 K, 100 kPa | 752.67
362.68 K, 1000 kPa | 753.64
362.68 K, 30000 kPa | 781.04
362.69 K, 5000 kPa | 758.03
362.69 K, 10000 kPa | 763.16
362.69 K, 20000 kPa | 772.56
362.7 K, 40000 kPa | 788.67
362.7 K, 60000 kPa | 802.36
362.71 K, 80000 kPa | 814.44
362.71 K, 100000 kPa | 825.18

COCCOCCOC [2,5,8-trioxanonane]
[1]
Settings | mass density [kg/m3]
283.67 K, 40000 kPa | 978.49
283.67 K, 60000 kPa | 989.12
283.67 K, 80000 kPa | 998.75
283.67 K, 100000 kPa | 1007.71
283.68 K, 10000 kPa | 960.29
283.68 K, 20000 kPa | 966.68
283.68 K, 30000 kPa | 972.8
283.69 K, 100 kPa | 953.48
283.69 K, 1000 kPa | 954.15
283.69 K, 5000 kPa | 956.94
303.47 K, 100 kPa | 933.69
303.47 K, 1000 kPa | 934.43
303.48 K, 5000 kPa | 937.55
303.48 K, 10000 kPa | 941.31
303.49 K, 20000 kPa | 948.42
303.49 K, 30000 kPa | 955.17
303.49 K, 40000 kPa | 961.41
303.49 K, 60000 kPa | 973.02
303.5 K, 80000 kPa | 983.33
303.5 K, 100000 kPa | 992.97
322.62 K, 100 kPa | 914.41
322.62 K, 1000 kPa | 915.3
322.62 K, 5000 kPa | 918.77
322.62 K, 10000 kPa | 923.02
322.62 K, 20000 kPa | 930.99
322.62 K, 30000 kPa | 938.31
322.62 K, 40000 kPa | 945.16
322.62 K, 60000 kPa | 957.74
322.62 K, 80000 kPa | 968.98
322.62 K, 100000 kPa | 979.2
342.49 K, 100 kPa | 894.03
342.49 K, 1000 kPa | 894.98
342.49 K, 5000 kPa | 898.96
342.5 K, 10000 kPa | 903.66
342.5 K, 20000 kPa | 912.57
342.51 K, 30000 kPa | 920.68
342.51 K, 40000 kPa | 928.18
342.51 K, 60000 kPa | 941.77
342.51 K, 80000 kPa | 953.82
342.52 K, 100000 kPa | 964.68
362.51 K, 100 kPa | 873.45
362.51 K, 1000 kPa | 874.46
362.51 K, 5000 kPa | 879.02
362.52 K, 10000 kPa | 884.41
362.52 K, 20000 kPa | 894.33
362.52 K, 30000 kPa | 903.29
362.52 K, 40000 kPa | 911.53
362.53 K, 60000 kPa | 926.3
362.53 K, 80000 kPa | 939.26
362.53 K, 100000 kPa | 950.89

CCCCO [butan-1-ol] + COCCOCCOC
[2]
Settings | mass density [kg/m3]
283.63 K, 80 kPa | 817.19
283.63 K, 5000 kPa | 820.7
283.64 K, 1000 kPa | 817.88
283.64 K, 40000 kPa | 842.03
283.64 K, 60000 kPa | 852.39
283.64 K, 100000 kPa | 870.33
283.65 K, 30000 kPa | 836.43
283.65 K, 80000 kPa | 861.72
283.66 K, 10000 kPa | 824.01
283.66 K, 20000 kPa | 830.39
303.45 K, 100 kPa | 801.81
303.45 K, 1000 kPa | 802.54
303.46 K, 5000 kPa | 805.65
303.46 K, 10000 kPa | 809.35
303.47 K, 20000 kPa | 816.29
303.47 K, 30000 kPa | 822.84
303.47 K, 40000 kPa | 828.87
303.47 K, 60000 kPa | 839.95
303.48 K, 80010 kPa | 849.82
303.48 K, 100000 kPa | 858.94
323.25 K, 1000 kPa | 787.19
323.26 K, 100 kPa | 786.36
323.26 K, 5000 kPa | 790.63
323.27 K, 10000 kPa | 794.68
323.27 K, 20000 kPa | 802.33
323.27 K, 30000 kPa | 809.41
323.28 K, 40000 kPa | 816
323.28 K, 60000 kPa | 827.77
323.28 K, 80000 kPa | 838.31
323.28 K, 100000 kPa | 847.65
343.03 K, 100 kPa | 769.54
343.03 K, 1000 kPa | 770.45
343.04 K, 5000 kPa | 774.32
343.04 K, 10000 kPa | 778.88
343.05 K, 20000 kPa | 787.37
343.05 K, 30000 kPa | 795.06
343.05 K, 40000 kPa | 802.13
343.05 K, 60000 kPa | 814.83
343.05 K, 80000 kPa | 826.08
343.05 K, 100000 kPa | 836.2
362.68 K, 100 kPa | 752.67
362.68 K, 1000 kPa | 753.64
362.68 K, 30000 kPa | 781.04
362.69 K, 5000 kPa | 758.03
362.69 K, 10000 kPa | 763.16
362.69 K, 20000 kPa | 772.56
362.7 K, 40000 kPa | 788.67
362.7 K, 60000 kPa | 802.36
362.71 K, 80000 kPa | 814.44
362.71 K, 100000 kPa | 825.18
